According to BindingDB's records for doi:10.1016/s0960-894x(01)00475-9 (Glaxosmithkline, 2001):
Peptide text beside a SMILES is read from it.

Assay: Inhibitory activity against Bacterial Tyrosyl tRNA Synthetase

SMILES | IC50 [µM]
CCOC(=O)[C@@H](NC(=O)[C@@H](N)Cc1ccc(O)cc1)[C@@H]1CC[C@H](O)[C@H](O)[C@H]1O [(S)-[(S)-2-Amino-3-(4-hydroxy-phenyl)-propionylamino]-((1S,2S,3S,4S)-2,3,4-trihydroxy-cyclohexyl)-acetic acid ethyl ester] | 0.245
CCOC(=O)[C@H](NC(=O)[C@@H](N)Cc1ccc(O)cc1)[C@@H]1C=C[C@H](O)[C@H](O)[C@H]1O [(R)-[(S)-2-Amino-3-(4-hydroxy-phenyl)-propionylamino]-((1S,4S,5S,6S)-4,5,6-trihydroxy-cyclohex-2-enyl)-acetic acid ethyl ester] | 0.124
COC(=O)[C@@H](NC(=O)[C@@H](N)Cc1ccc(O)cc1)C1CCCCC1 [(S)-[(S)-2-Amino-3-(4-hydroxy-phenyl)-propionylamino]-cyclohexyl-acetic acid methyl ester] (HELM PEPTIDE1{Y.[O=C([C@@H](N[*:1])C1CCCCC1)[*:2]].[CO[*:1]]}$$$$V2.0) | > 3

The next lines start with the values.

IC50 [µM] | SMILES
0.0034 | CCOC(=O)[C@@H](NC(=O)[C@@H](N)Cc1ccc(O)cc1)[C@@H]1C=C[C@H](O)[C@H](O)[C@H]1O [(S)-[(S)-2-Amino-3-(4-hydroxy-phenyl)-propionylamino]-((1S,4S,5S,6S)-4,5,6-trihydroxy-cyclohex-2-enyl)-acetic acid ethyl ester]
> 3 | CCOC(=O)[C@H](NC(=O)[C@@H](N)Cc1ccc(O)cc1)[C@@H]1CC[C@H](O)[C@H](O)[C@H]1O [(R)-[(S)-2-Amino-3-(4-hydroxy-phenyl)-propionylamino]-((1S,2S,3S,4S)-2,3,4-trihydroxy-cyclohexyl)-acetic acid ethyl ester]
